Data set [1] concerns Nierengefäße der Ratte. Kind of data set: Embolisation of the renal vessels in the rat, followed by X-ray. The class given is in vivo. The protocol:
Als gut darstellbare Gefäße wurden die Nierengefäße der Ratte embolisiert.
Dem Tier wurde ein Katheter (20 cm lang, 0,58 mm Øi in die A. mesentrerica eingebunden und in die A. renalis der linken Niere vorgeschoben. Die Lösung der Verbindung aus Beispiel 1 c) (hier 50 mmol/1 mit 150 mg J/ml Isovist ®) wurde mit 160 µl/min appliziert. Gesamtvolumen 250 µl. Anschließend wurde der Katheter in die A. mesenterica zurückgezogen, um die Blutversorgung der Nieren im weiteren Verlauf nicht zu beinträchtigen. […] Zur Kontrolle der Nierendurchblutung wurde 1 Stunde nach der lokalen Applikation der Verbindung aus Beispiel lc) 400 µl des nierengängigen Röntgenkontrastmittels Ultravist ® 300 mg J/ml i.v. in die Schwanzvene gegeben.
Direkt nach intraarterieller, lokaler Gabe von 250 µl einer Lösung der Verbindung aus Beispiel 1 c) (50 mmol/L + 150 mg J/ml Isovist ® )in die katherisierte Nierenarterie (linke Niere, im Bild rechts)
5' p.a. Ultravist ®, 400 µl i.v. 1 Stunde nach lokaler Gabe der Verbindung aus Beispiel 1c) wurde Ultravist ® über die Schwanzvene gegeben.

Data set [2] has as its system Lebergefäße am Kaninchen. Kind of data set: Embolisation of the liver vessels in the rabbit, followed by X-ray. In kind it is in vivo. The protocol: Als gut darstellbare Gefäße wurden die Lebergefäße am Kaninchen embolisiert.
Dem narkotisierten Tier wurde ein Katheter (60 cm lang, 1,5 mm Øa) über die A. femoralis bis in die Leberarterie durch die Aorta vorgeschoben. Die Lösung von Gadoliniumkomplex aus Beispiel 1c) (50 mmol/L mit 150 mg J/ml Isovist ®) wurde mit 160 µL/min appliziert. Gesamtvolumen 800 µL. Anschließend wurde der Katheter in die Aorta zurückgezogen, um die arterielle Blutversorgung der Leber im weiteren Verlauf nicht zu beeinträchtigen. […] Zum Teil ist die Abnahme der Signalintensität auf ein Herausdiffündieren des Röntgenkontrastmittels Isovist ® zurückzuführen.

The test system of data set [3] is VX-2 Tumorzellen. Kind of data set: Therapy of a liver carcinoma in the rabbit (chemoembolisation, MRI control). Particulars: rabbit VX-2 liver tumour, 75 mmol/l solution with 50 mg Cisplatin, 8 ml via catheter, MRI after 7 days; control animals 3,7 ± 1,5. In kind it is in vivo, Chinchilla-Kaninchen. The protocol:
Fünf männlichen Chinchilla-Kaninchen wurde durch Injektion von VX-2 Tumorzellen in den linken Leberlappen ein Tumor gesetzt. Dem narkotisiertem Tier wurde ein Katheter (60 cm lang, 1 mm Øa) über die Arteria femoralis bis in die Nähe des Tumors vorgeschoben. Dann wurde eine Lösung der Titelverbindung aus Beispiel 1 c [75 mmol/l mit 50 mg Cisplatin (=[…]) appliziert. Gesamtvolumen 8 ml.
Anschließend wurde der Katheter entfernt. Nach 7 Tagen wurden die Tiere mittels MRI untersucht. Es zeigte sich, daß der Tumor sich in seiner Größe verringert hat (durchschnittlicher Wachstumsfaktor 0,8 ± 0,2). Bei den Kontrolltieren (3 Tiere) wurden jedoch Wachstumsraten von 3,7 ± 1,5 beobachtet.

Data set [4] can be described thus: T1 relaxivity at 20 MHz, 37°C. The class given is physicochemical. The protocol: c) Gadolinium-Komplex von 10-[2-Hydroxy-4-aza-5-oxo-7-aza-7-(perfluoroctylsulfonyl)-nonyl]-1,4,7-tris(carboxymethyl)-1,4,7,10-tetraazacyclododecan 10 g (17,09 mmol) der Titelverbindung aus Beispiel 1b) und […] (18,79 mmol) N-Hydroxysuccinimid werden in einer Mischung aus 50 ml Dimethylformamid/50 ml Chloroform gelöst. Bei 0°C gibt man 3,88 g (18,79 mmol) Dicyclohexylcarbodiimid zu und rührt 1 Stunde bei 0°C, anschließend 3 Stunden bei Raumtemperatur. Man kühlt erneut auf 0°C und gibt 5,19 g (51,27 mmol) Triethylamin/50 ml 2-Propanol zu. Anschließend werden 10,78 g (18,79 mmol) Gadolinium-Komplex von 10-(3-Amino-2-hydroxy-propyl)-1,4,7-tris(carboxymethyl)-1,4,7,10-tetraazacyclododecan (WO 95/17451) gelöst in 50 ml Wasser zugegeben und 3 Stunden bei Raumtemperatur gerührt. Man dampft zur Trockne ein, nimmt den Rückstand in einer Mischung aus 200 ml Methanol/100 ml Chloroform auf und filtriert vom Dicyclohexylharnstoff ab. Das Filtrat wird zur Trockne eingedampft und durch RP-Chromatographie gereinigt (RP-18/Laufmittel: Gradient aus Wasser/n-Propanol/ Acetonitril). Ausbeute: 16,37 g (78 % d. Th.) eines farblosen glasigen Feststoffes Wassergehalt: 7,1 % T1-Relaxivität (L/mmol·sec) bei 20 MHz, 37°C: 41 (Wasser) 49 (Humanplasma)
e) Mangan-Komplex von 10-[2-Hydroxy-4-aza-5-oxo-7-aza-7-(perfluoroctylsulfonyl)-nonyl]-1,4,7-tris(carboxymethyl)-1,4,7,10-tetraazacyclododecan (als Natriumsalz) 5 g (5,07 mmol) der Titelverbindung aus Beispiel ld) werden in 100 ml Wasser gelöst und 0,58 g (5,07 mmol) Mangan(II) -carbonat zugegeben. Man rührt3 Stunden bei 80°C. Die Lösung wird filtriert und das Filtrat mit 1 N Natronlauge auf pH 7,2 gestellt, anschließend wird gefriergetrocknet. Ausbeute: 5,87 g (quantitativ) eines farblosen amorphen Pulvers Wassergehalt: 8,4 % T1-Relaxivität (L/mmol·sec) bei 20 MHz, 37°C: 2,7 (Wasser) 4,2 (Humanplasma)
c) Gadolinium-Komplex von 10-[2-Hydroxy-4-aza-5-oxo-7-oxa-10,10,11,11,12,12,13,13,14,14,15,15,16,16,17,17,17-heptadecafluor-heptadecyl]-1,4,7-tris(carboxymethyl)-1,4,7,10-tetraazacyclododecan 7,0 g (13,41 mmol) der Titelverbindung aus Beispiel 2b) und 1,70 g (14,75 mmol) N-Hydroxysuccinimid werden in einer Mischung aus 30 ml Dimethylformamid/ 20 ml Chloroform gelöst. Bei 0°C gibt man 3,04 g (14,75 mmol) Dicyclohexylcarbodiimid zu und rührt 1 Stunde bei 0°C, anschließend 3 Stunden bei Raumtemperatur. Man kühlt erneut auf 0°C und gibt 4,48 g (44,25 mmol) Triethylamin/50 ml 2-Propanol zu. Anschließend werden 8,46 g (14,75 mmol) Gadolinium-Komplex von 10-(3-Amino-2-hydroxy-propyl)-1,4,7-tris(carboxymethyl)-1,4,7,10-tetraazacyclododecan gelöst in 40 ml Wasser zugegeben und 3 Stunden bei Raumtemperatur gerührt. Man dampft zur Trockne ein, nimmt den Rückstand in einer Mischung aus 100 ml Methanol/30 ml Chloroform auf und filtriert vom Dicyclohexylharnstoff ab. Das Filtrat wird zur Trockne eingedampft und durch RP-Chromatographie gereinigt (RP-18/Laufmittel: Gradient aus Wasser/n-Propanol/Acetonitril). Ausbeute: 11,8 g (75 % d. Th.) eines farblosen glasigen Feststoffes Wassergehalt: 8,2 % T1-Relaxivität (L/mmol·sec) bei 20 MHz, 37°C: 19 (Wasser) 33 (Humanplasma)
c) Gadolinium-Komplex von 10-[-2Hydroxy-4-oxa-1H,1H,2H,3H,3H,5H,5H,6H,6H-perfluor-tetradecyl]-1,4,7-tris(carboxymethyl)-1,4,7,10-tetraazacyclododecan 10 g (11,54 mmol) der Titelverbindung aus Beispiel 3b) werden in einer Mischung aus 100 ml Wasser/50 ml 2-Propanol gelöst und 2,09 g (5,77 mmol) Gadoliniumoxid zugegeben. Man rührt 3 Stunden bei 80°C. Die Lösung wird filtriert und im Vakuum zur Trockne eingedampft. Ausbeute: 12,48 g (quantitativ) eines glasigen Feststoffes Wassergehalt: 5,6 % T1-Relaxivität (L/mmol·sec) bei 20 MHz, 37°C: 15,2 (Wasser) 27,5 (Humanplasma)

[5] abbreviates: gut löslich at this concentration, free-flowing solution.

The record followed here is patent EP0882010B1, “PHARMACEUTICAL AGENTS CONTAINING PERFLUOROALKYL-CONTAINING METAL COMPLEXES AND THE USE THEREOF IN TUMOUR THERAPY AND INTERVENTIONAL RADIOLOGY” (SCHERING AKTIENGESELLSCHAFT, priority 1996, dated 1997).

“Also recorded” adds a separate entry of the source. Read-outs that look alike come from different tables or passages of the source.

For the compound `CCN(CC(=O)NCC(O)CN1CCN(CC(=O)[O-])CCN(CC(=O)[O-])CCN(CC(=O)[O-])CC1)S(=O)(=O)C(F)(F)C(F)(F)C(F)(F)C(F)(F)C(F)(F)C(F)(F)C(F)(F)C(F)(F)F.[Gd+3]` (centres unmarked) [Beispiel 1c), Gadolinium-Komplex von 10-[2-Hydroxy-4-aza-5-oxo-7-aza-7-(perfluoroctylsulfonyl)-nonyl]-1,4,7-tris(carboxymethyl)-1,4,7,10-tetraazacyclododecan], in data set [1] (250 µl of 50 mmol/1 solution with 150 mg J/ml Isovist into A. renalis at 160 µl/min), the “Abgrenzung der Gefäße der linken Niere in Röntgenaufnahmen” value is “scharf gegenüber dem Nierenparenchym abgegrenzt”. In data set [1] (400 µl Ultravist 300 mg J/ml i.v. 1 hour after local application, non-embolised right kidney enhanced), the “Enhancement der embolisierten linken Niere und ihres Harnleiters” value is listed as “kein Enhancement; also recorded: bleibt dunkel”. In addition, the “Signalintensität der Gefäße in der Niere” value in data set [1] (up to 45 minutes after administration, attributed to Isovist diffusing out) was “deutlich ab”. Moreover, the “Applizierbarkeit der Lösung” value is “problemlos” (100 mmol/1 in water with 100 mg J/ml Isovist, 20 cm, 0,58 mm Øi tube at 160 µl/min) and “problemlos” (100 mmol/L in water, by hand or infusion pump through a 20 cm, 0.58 mm Øi tube at 160 µL/min). The “Konsistenz der Lösung” value is on record as “klar durchsichtig und besitzt eine gelartig feste Konsistenz” (100 mmol/1 solution in water with 100 mg J/ml Isovist) and “klar durchsichtig und besitzt eine gelartig feste Konsistenz” (100 mmol/L solution in water). The “Konsistenz mit Zusatz von Harnstoff” value (8 mol/L Harnstoff (final), also at substance concentration 400 mmol/L) is given as “frei fließende Lösung”. The “Löslichkeit in 96% Ethanol” value (96% Ethanol, free-flowing solution) is reported as > 500 mmol/L. Moreover, the “Löslichkeit in Rinderplasma” value (Rinderplasma, solution of comparable consistency) is recorded as “ebenso löslich wie in reinem Wasser”. The “Einfluß auf die Konsistenz der Zubereitung” value (addition of 10 mmol/L HCl or NaOH, or 3 mol/L NaCl) is “keinen Einfluß auf die Konsistenz”. Besides, under “aqueous formulation, Triton X-100, 1.7%”, the “Veränderung der Konsistenz durch Triton X-100” value is given as “Verflüssigung der gelartigen Konsistenz”. Further, the “Veränderung der Konsistenz durch Tween 80” value (aqueous formulation, Tween 80, 4.6% final concentration) is reported as “keine Veränderung der Konsistenz”. Under setting [5], the “Löslichkeit in 66% DMSO/Wasser” value is listed as ≥ 150 mmol/L. For the same compound, the “Löslichkeit in 66% Propylenglycol/Wasser” value under setting [5] is ≥ 250 mmol/L. Besides, the “concentration below which a frei fließende Lösung results” value (in water, printed as 'Unterhalb von etwa') is 10000 to 20000 µM. For the same compound, the “Löslichkeit in reinem DMSO” value (pure DMSO) is listed as “praktisch unlöslich”. Moreover, the “Löslichkeit in reinem Propylenglycol” value (pure Propylenglycol) is “praktisch unlöslich”. The “Abgrenzung der Gefäße der Leber in Röntgenaufnahmen” value in data set [2] (800 µL of 50 mmol/L solution with 150 mg J/ml Isovist into liver artery at 160 µL/min) is recorded as “scharf gegenüber dem Leberparenchym abgegrenzt”. Moreover, the “Signalintensität der Gefäße in der Leber” value in data set [2] (within 60 minutes after administration) is “nur langsam ab”. Besides, the “durchschnittlicher Wachstumsfaktor des Tumors” value in data set [3] is listed as 0,8 ± 0,2. The T1-Relaxivität was 49 L/mmol/s in data set [4] (Humanplasma) and 41 L/mmol/s in data set [4] (Wasser).
